{
  "source": "paper PMC4604124",
  "about": "“In Vitro Characterization of the Pharmacological Properties of the Anti-Cancer Chelator, Bp4eT, and Its Phase I Metabolites” (PLoS ONE, 2015)",
  "key": {"caspase 8": {"system": "caspase 8", "test": "Caspase activity, luminescent kit, caspase 8", "assay_type": "cell-based, human", "details": "for Caspase 8 activity, % of the control: 100 nM, MCF-7, corrected for viability; for kaspáza 8, průměry (means of raw signal): mean of 4 experiments; for kaspáza 8, raw signal / kaspáza 8, signal / viabilita: individual experiments by date", "protocol": "To assess the effect of the compounds on caspase activity, MCF-7 cells were incubated with 100 nM Bp4eT or its metabolites for 3, 24 or 72 h/37°C in 96-well plates, as described above. The cells were then lysed by adding 100 μL of cold lysis buffer (100 mM HEPES, 10 mM CHAPS, 10 mM D-L-dithiothreitol, pH 7.4) to 100 μL of medium in each well. Lysates were immediately frozen at -80°C. Thawed lysates were used to assess caspase activity using luminescent kits for caspases 3/7, 8 and 9 (Promega, Madison, WI, USA). The luminescence was measured using the Tecan Infinite 200M plate reader. Caspase activity in the experimental groups was corrected according to the cellular viability of each group and expressed as a percentage of activity of the untreated control (100%)."}, "[1]": {"system": "A549 human lung adenocarcinoma cells", "test": "MTT cytotoxicity assay, A549 cells", "assay_type": "cell-based", "details": "for IC50: MTT", "protocol": "For cytotoxicity experiments, cancer cells were seeded at a density of 5,000 (MCF-7), 10,000 (HL-60) or 2,000 cells/well (HCT116 and A549) in 96-well plates (TPP) for 24 h/37°C prior to the addition of examined agents. The non-cancerous cells, 3T3 and H9c2 cells, were cultured for 24 h/37°C in 96-well plates at a density of 10,000 cells/well, the medium was then changed to serum- and pyruvate-free DMEM (Sigma-Aldrich) and incubated with the cells for another 24 h/37°C. The cytotoxic effects of Bp4eT and its metabolites were studied at different concentrations after a 72 h/37°C incubation. In order to aid the dissolution of the lipophilic ligands, 0.1% dimethyl sulfoxide (v/v) (DMSO; Sigma-Aldrich) was present in the culture medium of all groups. At this concentration, DMSO had no effect on cellular proliferation or viability.\nThe viability of cells were determined using an MTT assay (Sigma-Aldrich) according to previously established methods. The optical density of soluble MTT was measured at λ = 570 nm, subtracting the λ = 690 nm background using a Tecan Infinite 200M plate reader (Tecan Group, Männedorf, Switzerland). The viability or proliferation of experimental groups was expressed as a percentage of the untreated controls (100%).\n(§1) SigmaStat for Windows 3.5 (Systat Software, San Jose, CA, USA) statistical software package was utilized to analyze results. The data are expressed as the mean ± SD of a given number of experiments. Statistical significance was determined using a one-way ANOVA with a Bonferroni post-hoc test or Student’s t-test. The results were considered to be statistically significant when p < 0.05. The IC50 values were calculated using CalcuSyn 2.0 software (Biosoft, Cambridge, UK). Cell cycle analysis was evaluated using MultiCycle AV Software (Phoenix Flow Systems, San Diego, CA, USA)."}, "MCF-7 cells": {"system": "MCF-7 cells", "test": "Cell cycle analysis by flow cytometry (propidium iodide)", "assay_type": "cell-based, human", "details": "0.1 μM, 72 h", "protocol": "To examine the effect of the agents on the cell cycle, MCF-7 cells were seeded in 60 mm Petri dishes at a density of 240,000 cells/dish and incubated with Bp4eT or its metabolites for 72 h/37°C. The cells were then harvested, fixed by ethanol and stained by propidium iodide (Molecular Probes, Eugene, OR, USA) for 30 min/37°C, as described previously. Cells were analyzed using Accuri C6 flow cytometer (Becton Dickinson and Company, San Jose, CA USA). Propidium iodide was excited at λex = 488 nm and fluorescence analyzed at λem = 585 nm (FL-2) with a total of 10,000 events collected per analysis.\nas §1"}},
  "note": "Several values for one entry are separate records, joined by “and”; a condition that tells them apart may be missing. Identical values can stand only once.",
  "data": [
    {"compound": "CCNC(=S)NN=C(c1ccccc1)c1ccccn1", "note": "[Bp4eT, 2-benzoylpyridine 4-ethyl-3-thiosemicarbazone]", "values": [
      {"measurement": "Caspase 8 activity, % of the control", "setting": "caspase 8; 24 h", "result": 125, "unit": "%"},
      {"measurement": "Caspase 8 activity, % of the control", "setting": "caspase 8; 72 h", "result": 189, "unit": "%"},
      {"measurement": "kaspáza 8, % kontroly", "setting": "caspase 8; 3 hodiny (3 h), % of control", "result": 95.86, "unit": "%"},
      {"measurement": "kaspáza 8, průměry (means of raw signal)", "setting": "caspase 8; 3 hodiny (3 h)", "result": 1343.75},
      {"measurement": "kaspáza 8, raw signal", "setting": "caspase 8; 3 hodiny", "result": "2059 and 1157 and 1253.5 and 905.5"},
      {"measurement": "kaspáza 8, raw signal, průměry", "setting": "caspase 8; 3 hodiny, mean", "result": 1343.75},
      {"measurement": "kaspáza 8, % kontroly", "setting": "caspase 8; 3 hodiny, mean, normalised to viability", "result": 100.78, "unit": "% kontroly"},
      {"measurement": "kaspáza 8, signal / viabilita", "setting": "caspase 8; 3 hodiny, normalised to viability", "result": "21.3728 and 12.0099 and 13.0116 and 9.399"},
      {"measurement": "kaspáza 8, signal / viabilita, průměry", "setting": "caspase 8; 3 hodiny, normalised to viability, mean", "result": 13.9484},
      {"measurement": "kaspáza 8, % kontroly", "setting": "caspase 8; 24 hodin (24 h), % of control", "result": 66.28, "unit": "%"},
      {"measurement": "kaspáza 8, průměry (means of raw signal)", "setting": "caspase 8; 24 hodin (24 h)", "result": 1049.5},
      {"measurement": "kaspáza 8, raw signal", "setting": "caspase 8; 24 hodin", "result": "1182.5 and 845.5 and 1242.5 and 927.5"},
      {"measurement": "kaspáza 8, raw signal, průměry", "setting": "caspase 8; 24 hodin, mean", "result": 1049.5},
      {"measurement": "kaspáza 8, % kontroly", "setting": "caspase 8; 24 hodin, mean, normalised to viability", "result": 125.02, "unit": "% kontroly"},
      {"measurement": "kaspáza 8, signal / viabilita", "setting": "caspase 8; 24 hodin, normalised to viability", "result": "22.3747 and 15.9981 and 23.51 and 17.5497"},
      {"measurement": "kaspáza 8, signal / viabilita, průměry", "setting": "caspase 8; 24 hodin, normalised to viability, mean", "result": 19.8581},
      {"measurement": "kaspáza 8, % kontroly", "setting": "caspase 8; 72 hodin (72 h), % of control", "result": 50.72, "unit": "%"},
      {"measurement": "kaspáza 8, průměry (means of raw signal)", "setting": "caspase 8; 72 hodin (72 h)", "result": 3576.88},
      {"measurement": "kaspáza 8, raw signal", "setting": "caspase 8; 72 hodin", "result": "5283 and 3499.5 and 2666 and 2859"},
      {"measurement": "kaspáza 8, raw signal, průměry", "setting": "caspase 8; 72 hodin, mean", "result": 3576.88},
      {"measurement": "kaspáza 8, % kontroly", "setting": "caspase 8; 72 hodin, mean, normalised to viability", "result": 188.91, "unit": "% kontroly"},
      {"measurement": "kaspáza 8, signal / viabilita", "setting": "caspase 8; 72 hodin, normalised to viability", "result": "195.017 and 129.181 and 98.4127 and 105.537"},
      {"measurement": "kaspáza 8, signal / viabilita, průměry", "setting": "caspase 8; 72 hodin, normalised to viability, mean", "result": 132.037},
      {"measurement": "Therapeutic index, IC50 non-cancerous cells / IC50 neoplastic cells", "setting": "[1]; 3T3/A549", "result": 2.2},
      {"measurement": "MTT, relative to control (0 = 100)", "setting": "[1]; A549, 2 000 b/j, 3 nM, průměr (mean)", "result": 92.19},
      {"measurement": "MTT, relative to control (0 = 100)", "setting": "[1]; A549, 2 000 b/j, 3 nM, single experiment (date)", "result": "91.5535 and 92.8133 and 91.0654 and 88.0734 and 97.4647"},
      {"measurement": "MTT, relative to control (0 = 100)", "setting": "[1]; A549, 2 000 b/j, 10 nM, průměr (mean)", "result": 91.72},
      {"measurement": "MTT, relative to control (0 = 100)", "setting": "[1]; A549, 2 000 b/j, 10 nM, single experiment (date)", "result": "91.5177 and 92.1605 and 92.1041 and 86.392 and 96.4421"},
      {"measurement": "MTT, relative to control (0 = 100)", "setting": "[1]; A549, 2 000 b/j, 30 nM, průměr (mean)", "result": 87.89},
      {"measurement": "MTT, relative to control (0 = 100)", "setting": "[1]; A549, 2 000 b/j, 30 nM, single experiment (date)", "result": "87.7056 and 88.2789 and 85.7469 and 83.2321 and 94.498"},
      {"measurement": "MTT, relative to control (0 = 100)", "setting": "[1]; A549, 2 000 b/j, 100 nM, průměr (mean)", "result": 69.03},
      {"measurement": "MTT, relative to control (0 = 100)", "setting": "[1]; A549, 2 000 b/j, 100 nM, single experiment (date)", "result": "72.0253 and 71.8755 and 68.5876 and 61.5642 and 71.0965"},
      {"measurement": "MTT, relative to control (0 = 100)", "setting": "[1]; A549, 2 000 b/j, 300 nM, průměr (mean)", "result": 52.20},
      {"measurement": "MTT, relative to control (0 = 100)", "setting": "[1]; A549, 2 000 b/j, 300 nM, single experiment (date)", "result": "56.5532 and 52.1351 and 48.5459 and 51.5538"},
      {"measurement": "MTT, relative to control (0 = 100)", "setting": "[1]; A549, 2 000 b/j, 1000 nM, průměr (mean)", "result": 44.75},
      {"measurement": "MTT, relative to control (0 = 100)", "setting": "[1]; A549, 2 000 b/j, 1000 nM, single experiment (date)", "result": "46.6699 and 42.1761 and 41.9617 and 48.1966"},
      {"measurement": "MTT, relative to control (0 = 100)", "setting": "[1]; A549, 2 000 b/j, 3000 nM, průměr (mean)", "result": 30.92},
      {"measurement": "MTT, relative to control (0 = 100)", "setting": "[1]; A549, 2 000 b/j, 3000 nM, single experiment (date)", "result": "34.7604 and 31.7204 and 27.6953 and 29.4937"},
      {"measurement": "IC50", "setting": "[1]; A549, 2 000 b/j, single experiment (date)", "result": "550 nM and 407 nM and 670 nM"},
      {"measurement": "Therapeutic index, IC50 non-cancerous cells / IC50 neoplastic cells", "setting": "[1]; H9c2/A549", "result": 0.9},
      {"measurement": "IC50", "setting": "[1]; Homo sapiens, A549, 72 h, A549, 72 h/37°C, mean ± SD, n ≥ 4", "result": "593 ± 148", "unit": "nM"},
      {"measurement": "IC50", "setting": "[1]; Homo sapiens, A549, A549, 2 000 b/j, průměr (mean)", "result": 593, "unit": "nM"},
      {"measurement": "IC50", "setting": "[1]; Homo sapiens, A549, A549, 2 000 b/j, single experiment (date)", "result": 744, "unit": "nM"},
      {"measurement": "Therapeutic indices, range", "setting": "[1]; against A549 cells (H9c2/A549 and 3T3/A549)", "result": "0.9–2.2"},
      {"measurement": "G1 phase of the cell cycle", "setting": "MCF-7 cells", "result": "not significantly (p > 0.05) different from the control"},
      {"measurement": "Percentage of cells in the S phase", "setting": "MCF-7 cells; control 15%", "result": 35, "unit": "%"}
    ]}
  ]
}
